Series [1] concerns the target T1, T. guaymasensis ADH (Thermococcus guaymasensis, UniProt F8S123). The experiment in a line: Stereoselective conversion between acetoin and 2,3-butanediol (chiral GC). In kind it is biochemical. The method, then: All the reactions were carried out at 30° C. for 24 hours unless specified. After that, the reaction mixture (1 ml) was extracted with 1 ml ethyl acetate or dichloride methane with shaking on a Gyrotory water bath shaker model G76 (New Brunswick Scientific Co., INC., NJ, USA) at 350 rpm for 30 min (room temperature). The stereoselectivity of the purified enzyme was determined using the Shimadzu GC-14A gas chromatography equipped with a CP-Chirasil-Dex CB column (0.25 mm ID×25 m length, Varian Inc., Palo Alto, Calif., USA). The following GC operating conditions included the FID detector (250° C.) at a sensitivity range of 10 and helium as the carrier gas at a linear velocity of 40 cm s^−1. […] The reaction mixture after extraction (0.5 μl) was directly applied onto the injector (200° C.) for each assay. The peak areas were quantitated using specific external standards.

In series [2] the target is T1, T. guaymasensis ADH. The series is described as follows: Substrate specificity, aldehyde/ketone reduction (standard enzyme assay). In kind it is biochemical. The conditions noted are these: aldehydes or ketones 6 mM; 100% = 2-butanone; 0.2 mM NADPH, pH 7.5, 80° C. The procedure: (§1) The purified enzyme (0.25 μg) initiated the enzyme assay. […] The protein concentrations of all samples were determined using the Bradford method and bovine serum albumin served as the standard protein (Bradford 1976).
(§2) The effect of pH on the enzyme activities was determined over a range of 5.5-11.4. The buffers (100 mM) used were phosphate (pH 5.5-8.0), EPPS (8.0-9.0), glycylglycine (9.0-9.7), and CAPS (9.7-11.4). The effect of the temperature on the enzyme activity was examined at temperatures from 30 to 95° C. Enzyme thermostability was determined by incubating the enzyme in sealed serum bottles at 80° C. and 95° C., respectively. Residual activity was assayed at various time intervals under the standard assay conditions. Substrate specificity was determined using primary and secondary alcohols (50 mM), diols and polyols (50 mM), or aldehydes and ketones (6 mM) under standard assay conditions.

Series [3] concerns the target T1, T. guaymasensis ADH. The series is described as follows: Substrate specificity, alcohol oxidation (standard enzyme assay). In kind it is biochemical. To be noted: for Relative activity (alcohol oxidation): alcohols 50 mM, 100% = 2-butanol, 0.4 mM NADP^+, pH 10.5, 80° C. The method, then:
as §1, §2

In the next series the test system is C[C@H](O)[C@@H](C)O. The experiment in a line: purified protein, by the assay type. To be noted: other: co-substrate NADP^+ (0.4 mM); 80.0 °C.
Another series deals with C[C@@H](O)[C@@H](C)O. The experiment in a line: purified protein, by the assay type. To be noted: other: co-substrate NADP^+ (0.4 mM); 80.0 °C.
The test system of series [4] is T. guaymasensis ADH. The series is described as follows: Effect of metal ions on enzyme activity (2-butanone reduction). To be noted: up to 100 μM in the assay mixture. In kind it is biochemical, Thermococcus guaymasensis. The procedure:
as §2
Metal ions were added in the enzyme assay mixture at a final concentration of 100 μM.

A short description of series [5]: ADH specific activity (spectrophotometric enzyme assay). In kind it is biochemical. The method, then:
as §1
The reaction was initiated by adding enzymes.

A short description of series [6]: Oxygen sensitivity (residual activity after exposure to air). In kind it is physicochemical. To be noted: exposed to air for a week. The method, then:
The effect of oxygen on enzyme activity was investigated by exposing the enzyme samples in the air at room temperature and determining the residual activity after oxygen exposure. The exposure was performed in the presence or absence of DDT and SDT. The residual activities of each sample at different time intervals were tested parallelly under the standard assay conditions.

Substrate in series [7]: CCC(C)=O
The experiment in a line: purified protein, by the assay type. To be noted: other: co-substrate NADPH (0.2 mM); 80.0 °C.

Substrate in series [8]: CC(=O)C(C)=O
The experiment in a line: purified protein, by the assay type. The conditions noted are these: other: co-substrate NADPH (0.2 mM); 80.0 °C.

Substrate in series [9]: CC(=O)C(C)O
The series is described as follows: purified protein, by the assay type. The conditions noted are these: other: co-substrate NADPH (0.2 mM); 80.0 °C. In kind it is biochemical, Thermococcus guaymasensis.

Where [10] appears, read: oxidation, 50 mM substrate, 500 mM acetone, 1 mM NADP^+, 30° C., 24 hours.

This is an account of results in patent US8476051B2, “Thermostable alcohol dehydrogenase derived from Thermococcus guaymasensis” (priority 2008, dated 2013).

“Also recorded” adds a separate entry of the source. Like-named read-outs stand apart in the source and are kept apart here. Marks after values point to notes of the source that are not given here.

For `C[C@@H](O)[C@@H](C)O` [(2R,3R)-(−)-2,3-butanediol], the “Enantiomeric excess (ee) of product (3R)-acetoin” value at T. guaymasensis ADH [1] (setting [10]) was 94%.

For the molecule `CC(=O)C(C)O` (racemic) [Acetoin], the “Relative activity (aldehyde/ketone reduction)” value on T. guaymasensis ADH [2] came to 93 ± 3.2%. In addition, the “ee of (2R,3R)-2,3-butanediol and meso-2,3-butanediol over (2S,3S)-(+)-2,3-butanediol” value at T. guaymasensis ADH [1] (reduction, 50 mM substrate, 500 mM isopropanol, 1 mM NADPH, 30° C., 24 hours) is recorded as greater than 99%. Also, the “Oxidation of the substrate by the enzyme (in words)” value (“Oxidation of the substrate” below) on T. guaymasensis ADH [3] is “could not oxidize; also recorded: cannot be oxidized”.

For `CCC(C)=O` [2-Butanone], the “Relative activity (aldehyde/ketone reduction)” value on T. guaymasensis ADH [2] is listed as 100 ± 3.4^b %. Moreover, the “Stereoselectivity of the reduction (in words)” value at T. guaymasensis ADH [1] (reduction to chiral 2-butanols) is given as “no stereoselectivity”. `CC(C)O` [2-Propanol]: the “Relative activity (alcohol oxidation)” value on T. guaymasensis ADH [3] is 88 ± 1.1%. With 1-Propanol, the “Relative activity (alcohol oxidation)” value at T. guaymasensis ADH [3] turned out to be 15.1 ± 0.3%. In the case of `CCCCCO` [1-Pentanol], the “Relative activity (alcohol oxidation)” value at T. guaymasensis ADH [3] came to 0.8 ± 0.2%. Still for that read-out and setting: for `OCC(O)CO` [Glycerol] the value was 0.2 ± 0.1%. As a reminder, the Km is the substrate concentration at which the rate is half of its maximum. What is called kcat is the maximal rate divided by the concentration of active sites. A word on the kcat/Km: it is the turnover number divided by the Michaelis constant. As to “T. guaymasensis ADH (Thermococcus guaymasensis)”, in the series with C[C@H](O)[C@@H](C)O, the Km is given as 19.3 mM, the Vmax amounted to 1430 µmol/min/mg, the kcat was 952 s⁻¹ and the kcat/Km turned out to be 49000 M⁻¹ s⁻¹. Moreover, in the series on C[C@@H](O)[C@@H](C)O, the Km is given as 15.2 mM, the Vmax amounted to 1110 µmol/min/mg, the kcat came out at 740 s⁻¹ and the kcat/Km is 49000 M⁻¹ s⁻¹. With `C[C@H](O)[C@@H](C)O` [meso-2,3-butanediol], the “Enantiomeric excess (ee) of product (3S)-acetoin” value on T. guaymasensis ADH [1] (setting [10]) was determined as 88%.

With `CC(O)C(C)O` (stereo not shown) [2,3-Butanediol], on T. guaymasensis ADH [3], the “Relative activity (alcohol oxidation)” value worked out at 78.7 ± 3.4%.

`CCCC(C)O` (stereo not shown) [2-Pentanol]: at T. guaymasensis ADH [3], the “Relative activity (alcohol oxidation)” value is 66.3%. The same measure, in the same setting: as for `CC(O)CCO` (stereo not shown) [1,3-Butanediol], the figure is 35.4 ± 1.1%; as for `CCC(O)CO` (stereo not shown) [1,2-Butanediol], 25.6 ± 2.3%.

`C[C@@H](O)[C@H](N)C(=O)O` [L-threonine]: the “Oxidation of the substrate” value on T. guaymasensis ADH [3] was “no activity; also recorded: did not catalyze”; on T. guaymasensis ADH [3] (listed as threonine), “did not catalyze”. Take `CO` [Methanol]: at T. guaymasensis ADH [3], the “Oxidation of the substrate” value is recorded as “did not oxidize” and the “Relative activity (alcohol oxidation)” value is listed as 0%. `CC(=O)C(C)=O` [Diacetyl]: the “Relative activity (aldehyde/ketone reduction)” value at T. guaymasensis ADH [2] is 134.8 ± 5.9%. On to `CCO` [Ethanol], for which the “Relative activity (alcohol oxidation)” value on T. guaymasensis ADH [3] was 5.7 ± 0.3%. Consider `CCCC(C)=O` [2-Pentanone], for which the “Relative activity (aldehyde/ketone reduction)” value on T. guaymasensis ADH [2] is listed as 86.2 ± 3.1%. On the same count and under the same terms, for `CC(C)=O` [Acetone] the value was 149.4 ± 2.8%. In the case of `CCCC(O)CO` (stereo not shown) [1,2-Pentanediol], the “Relative activity (alcohol oxidation)” value at T. guaymasensis ADH [3] is given as 4.7 ± 0.3%. For `CCCCO` [1-Butanol], on T. guaymasensis ADH [3], the “Relative activity (alcohol oxidation)” value stood at 5.1 ± 0.2%. With `CC=O` [Acetaldehyde], the “Relative activity (aldehyde/ketone reduction)” value on T. guaymasensis ADH [2] is listed as 36 ± 4.2%. Still for that read-out and setting: for `CCCC=O` [Butyraldehyde] the value was 112.4 ± 11.9%. In the case of `[Zn+2]` [Zn^2+], the “Effect on enzyme activity (butanol formation)” value in the series on T. guaymasensis ADH [4] is given as “inhibited”; with T. guaymasensis ADH [4] (listed as zinc), “blocked”. Turning to `CCC(C)O` (stereo not shown) [2-Butanol], on T. guaymasensis ADH [3] (50 mM substrate), the “Activity meant by relative activity of 100% in alcohol oxidation” value is on record as “^aThe relative activity of 100% in alcohol oxidation means 1144 ± 24 U mg^−1”. Also, on T. guaymasensis ADH [3], the “Relative activity (alcohol oxidation)” value is listed as 100 ± 2.2^a %. As for `N[C@@H](CO)C(=O)O` [L-serine], at T. guaymasensis ADH [3], the “Oxidation of the substrate” value is “no activity; also recorded: did not catalyze”. As to `CC(O)CC(C)O` (stereo not shown) [2,4-Pentanediol], the “Relative activity (alcohol oxidation)” value on T. guaymasensis ADH [3] worked out at 9.2 ± 0.1%.

B1: TgADH(C56S): TgADH mutant, serine for cysteine at position 56 (SEQ ID NO:10), expressed in E. coli Rosetta-2 (protein)
chain: MHHHHHHSSGLVPRGSGMKETAAAKFERQHMDSPDLGTDDDDKAMADIGSEFMSKMRGFAMVDFGKAEWIEKERPKPGPYDAIVKPIAVAPCTSDIHTVFEAAFPREMSEFPRILGHEAVGEVVEVGSHVKDFKPGDRVVVPAITPDWRTLDVQRGYHQHSGGMLAGWKFSNPLKEGGKDGVFAEYFHVNDADMNLAHLPDEIKPEVAVMATDMMTTGFHGAELADIPLGGTVAVIGIGPVGLMAVAGARLLGAGRIIAVGSRPVCVEAAKYYGATDIVNRREHPDIAGRILELTGGEGVDSVIIAGGNVDVMKTAVKIVKPGGTVANINYFGSGDYLPIPRIEWGQGMAHKTIKGGLCPGGRLRMERLLDLIKYGRVDPSRLITHKFKGFDKIPEALYLMKDKPKDLIKPVVIIEE
modifications: C56S with vector coding region
As for B1, the “Enzyme activity compared with wild type TgADH (in words)” value in series [5] is “virtually no difference”. The “Activity after exposure to air (in words)” value in series [6] is “lost activity”.

B2: T. guaymasensis ADH (Thermococcus guaymasensis) (protein)
chain: SKMRGFAMVDFGKAEWIEKERPKPGPYDAIVKPIAVAPCTSDIHTVFEAAFPREMCEFPRILGHEAVGEVVEVGSHVKDFKPGDRVVVPAITPDWRTLDVQRGYHQHSGGMLAGWKFSNPLKEGGKDGVFAEYFHVNDADMNLAHLPDEIKPEVAVMATDMMTTGFHGAELADIPLGGTVAVIGIGPVGLMAVAGARLLGAGRIIAVGSRPVCVEAAKYYGATDIVNRREHPDIAGRILELTGGEGVDSVIIAGGNVDVMKTAVKIVKPGGTVANINYFGSGDYLPIPRIEWGQGMAHKTIKGGLCPGGRLRMERLLDLIKYGRVDPSRLITHKFKGFDKIPEALYLMKDKPKDLIKPVVIIEE
Regarding B2, in [7], the Km was 0.31 mM, the Vmax amounted to 285 U mg^−1, the catalytic constant (kcat) amounted to 190 s⁻¹ and the kcat/Km is reported as 613,000 s^−1M^−1. Also, in series [8], the Michaelis-Menten constant (Km) is 0.21 mM, the Vmax was 303 µmol/min/mg, the kcat was determined as 202 s⁻¹ and the kcat/Km was determined as 962000 M⁻¹ s⁻¹. Also, in series [9], the Km came to 0.32 mM, the Vmax is 213 µmol/min/mg, the kcat came to 142 s⁻¹ and the kcat/Km worked out at 444000 M⁻¹ s⁻¹.
